From PubChem BioAssay AID179 (DTP/NCI, 2004)
Several values for one entry are separate records, joined by “and”; a condition that tells them apart may be missing. Equal entries are not always repeated. Activity calls are given as the source filed them.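 How the source made its calls: active means compounds giving half or more protection of infected cells from virus-caused growth loss, again on retest; inactive means the rest.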

System: CEM cells HIV-1 protection, formazan growth assay
Assay: NCI AIDS Antiviral Assay
Details: for IC50: measured here: growth of uninfected CEM cells
Summary of the method: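 Category rules: moderately active means at least 50% protection on retest, and confirmed active means 100% protection reproducibly. The underlying data came from a formazan growth assay in HIV-1-infected CEM cells.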

Compound	EC50	IC50	outcome
O=[N+]([O-])c1cccc[c]1[Sb](=[O])([OH])[OH]	> 200 µM	7.41 µM	
C=C1CCC2C(C)(CO)C(O)CCC2(C)C1C/C=C1/CCOC1=O (configuration not stated)			inactive
CCN1C2=NCCN2S(=O)(=O)c2ccccc21	> 1000 µM	479 µM	
O=C1OC(c2ccccc2)N(C(=O)c2ccccc2)C1Cc1ccc(OCc2ccccc2)cc1 (configuration not stated)	> 200 µM	85.1 µM	
CC1NC(=O)c2cc(=O)n(C)c(O)c21 (configuration not stated)	> 209 µM	> 209 µM	
C=CCN1CC2CN=NC2(C#N)C1 (configuration not stated)	> 200 µM	> 200 µM	
S=C(N/N=C(/c1ccccc1)c1ccccn1)N1CCCCC1	> 2 µM	0.0389 µM	
C=C(Cn1cnc2c(N)ncnc21)C(=O)OC	> 107 µM	7.76 µM	
O=c1cc(NCc2ccncc2)[nH]c(=O)[nH]1			inactive
NC(=O)CSc1c2cc(O)ccc2nc2ccc(O)cc12	> 200 µM	36.3 µM	
Cc1ccc(C)c(NC(=O)c2cc(-c3ccc([N+](=O)[O-])cc3)nc(N)n2)c1	> 70.8 µM	> 70.8 µM	
C(=C\c1c[nH]c2ccccc12)/c1nccc2ccccc12	0.0631 µM	107 µM	
CC1CC[N+]2(C)CCCC12 (configuration not stated)	> 1120 µM	> 1120 µM	
CC(=O)NNC=N/C(C#N)=C(\N)C#N	> 200 µM	> 200 µM	
COc1ccc(-c2ncnc(-c3ccc(OC)c(OC)c3)n2)cc1OC	> 100 µM	> 100 µM	
CC1OC(=O)C(C(C)C)NC(=O)C(C(C)C)OC(=O)C(C(C)C)NC(=O)C(C)OC(=O)C(C(C)C)NC(=O)C(C(C)C)OC(=O)C(C(C)C)NC(=O)C(C)OC(=O)C(C(C)C)NC(=O)C(C(C)C)OC(=O)C(C(C)C)NC1=O (configuration not stated)	> 0.02 µM	0.00102 µM	
OCC1CCCCCCCCCCC12SCCCS2 (configuration not stated)	> 200 µM	120 µM	
CCCNC(=O)Cn1c(C)cc2ccccc21	> 200 µM	> 200 µM	
CCc1c(O)cc(=O)oc1-c1ccc(OC)c(OC)c1	> 200 µM	> 200 µM	
C/C(=N\NC(=O)CCSCCC(=O)N/N=C(\C)c1ccc(OS(C)(=O)=O)cc1)c1ccc(OS(C)(=O)=O)cc1	> 200 µM	> 200 µM	
Cc1ccc2c(c1)[nH]c(=S)n2C=C(C(N)=O)C(N)=O	> 200 µM	> 200 µM	
Nc1ncnc2snnc12	> 200 µM	> 200 µM	
CC1=NN(c2ccccc2)[As]2ON=C(c3ccc(Cl)cc3)C12 (configuration not stated)			inactive
O=C1c2ccccc2CCCCCCCCCCC12OCCCO2	> 200 µM	> 200 µM	

Compound	EC50	IC50	outcome
CCOC(=O)c1nc(SC)sc1NC(=O)c1ccc(OC)cc1	162 µM	> 200 µM	
O=S(=O)(O)c1cc(N=Nc2cc(S(=O)(=O)O)c3cccnc3c2O)ccc1/C=C/c1ccc(N=Nc2cc(S(=O)(=O)O)c3cccnc3c2O)cc1S(=O)(=O)O.[Na+].[Zn+2]	1.95 µM	14.1 µM	
CC(C)(C)N1C(=O)N=[N+](/C(=C(\c2ccccc2)n2nc([O-])n(C(C)(C)C)c2=O)c2ccccc2)C1=O	> 100 µM	> 100 µM	
COC(=O)c1nc(NC#N)[nH]c(=O)c1C	> 34.7 µM	> 34.7 µM	
c1ccc2sc(SSSSc3nc4ccccc4s3)nc2c1	> 200 µM	174 µM	
N#CCCNCCN(CCN(C(=O)Nc1ccccc1)c1ccccc1)C(=O)Nc1ccccc1	> 200 µM	93.3 µM	
Cc1ccc(S(=O)(=O)N/N=C(\C(=O)Nc2cccc([N+](=O)[O-])c2)c2nc3ccc([N+](=O)[O-])cc3[nH]c2=O)cc1	> 123 µM	115 µM	
OCc1c(-c2cccc3ccccc23)sc(-c2cccc3ccccc23)c1CO			inactive
CC(=O)O[C@@H]1CN(S(=O)(=O)c2ccc(C)cc2)C[C@@H]1C1CCCCC1	> 200 µM	35.5 µM	
CC1=CC(C)S(=O)(=O)C1 (configuration not stated)	> 200 µM	> 200 µM	
COC(=O)C1C(=O)C(C(=O)OC)C2CCC1N2C (configuration not stated)	> 200 µM	42.7 µM	
c1ccc2c(c1)nnn2C1CCCCO1 (configuration not stated)	> 200 µM	> 200 µM	
O=C1NC(=O)[C@@]2(CCOc3ccc(F)cc32)N1	> 741 µM	661 µM	
CS(=O)(=O)Nc1ccc2oc(=O)c3ccccc3c2c1	> 200 µM	24 µM	
CN(C)C=C1C(=O)c2ccccc2C1=O	> 35.5 µM	> 35.5 µM	
NNc1nc2ccccc2c(=O)n1NC(=O)C(=O)Nc1cccc(C(F)(F)F)c1	> 324 µM	> 324 µM	
c1cnc2c(c1)CCc1cc3cccnc3nc1-2	> 200 µM	186 µM	
O=C1CCCCCCCCCCC1Sc1ccccc1 (configuration not stated)	> 12.3 µM	> 12.3 µM	
COc1ccc(OCC(=O)O)c(C(=O)CCC(=O)O)c1			inactive
O=C(c1ccccc1)c1ccc(C(=O)c2ccccc2)cc1	> 5.01 µM	> 5.01 µM	
CN(C)CC1(C)Cc2sccc2C1=O (configuration not stated)	> 200 µM	> 200 µM	
CCOP(=O)(OCC)/C(=C\n1c(=S)[nH]c2cc(C)ccc21)C(=O)OC	> 200 µM	> 200 µM	
N=C1C=CC(=C(c2ccc(N)cc2)c2ccc(N)cc2)C=C1			inactive
N#CCN(Cc1ccccc1)[C@H]1CCC[C@]1(O)/C=C/c1ccc2c(c1)OCO2	> 200 µM	32.4 µM	

Compound	EC50	IC50	outcome
CC(=O)OCC12CCC3C4(C)CCCC(C)(C)C4CCC3(C)C1CC(C1=CC(=O)OC1O)O2 (configuration not stated)	> 200 µM	1.05 µM	
OC1(c2ccccc2)C2CCN(CC2)C1CN1CCOCC1 (configuration not stated)	> 200 µM	> 200 µM	
CN(C)c1ccc(/C=C2\C=Cc3ccccc32)cc1Br	> 8.32 µM	> 8.32 µM	
N#CC(C#N)=Cc1ccccc1Br	> 191 µM	3.31 µM	
COC(=O)/C=C\C(C#N)(C#N)N=Cc1sccc1C	0.11 µM	0.398 µM	
CCOC(=O)/C(C#N)=C/c1ccc(C#N)cc1	> 22.9 µM	> 22.9 µM	
CCCCS(=O)(=O)CCC(N)P(=O)(O)O (configuration not stated)	> 200 µM	> 200 µM	
CCCCCCCCCCCCCCCCCC(=O)OCC(CO)OC(=O)CCCCCCCCCCCCCCCCC (configuration not stated)			inactive
CN1C2CCC1/C(=C/c1cccc3c1OCO3)C(=O)/C2=C\c1cccc2c1OCO2	> 6.76 µM	> 6.76 µM	
CCOC1=NC(=O)CC(c2ccccc2)S1 (configuration not stated)			inactive
C/C(=N/NC(=S)Nc1cccc(C)c1)c1ccccn1	> 0.2 µM	0.0955 µM	
C=C[C@H](C)[C@H](O[Si](C)(C)C(C)(C)C)c1c(O)c2c(c3c(CCC)cc(=O)oc13)OC(C)(C)C=C2	> 200 µM	39.8 µM	
O=C1O[C@H]2C3C4CCC(C4[C@@H]2I)[C@H]13 (some centres not stated)	> 200 µM	> 200 µM	
CCCCCCCCOC(CO)CO	> 251 µM	> 251 µM	
NC(CCC(=O)NC(CSSCCCCS(=O)O)C(=O)NCC(=O)O)C(=O)O (configuration not stated)			inactive
Cc1ccc(/C=N/Nc2nncc3ccccc23)s1	> 200 µM	> 200 µM	
COCC1OC2(CCC[C@H]2O)O[C@H]1COC (some centres not stated)			inactive
CNN1C(=O)c2c(C)c(C)c(C#N)c(N)c2C1=O	> 200 µM	> 200 µM	
Cc1cc(C)c(-n2c(-c3ccc(Br)cc3)cs/c2=N\N=C2C=C(C(C)(C)C)C(=O)C(C(C)(C)C)=C2)c(C)c1	> 2.45 µM	> 2.45 µM	
C=C1CC(COc2ccc3c(C)c(Cl)c(=O)oc3c2)(c2ccccc2)OC1=O (configuration not stated)	> 200 µM	0.363 µM	
C[C@H]1CC[P+](Cc2ccccc2)(c2ccccc2)C1 (some centres not stated)	> 708 µM	33.1 µM	
COc1ccc(NC(C)=O)c(Cl)c1	> 1260 µM	> 1260 µM	
CCC[CH2][Sn]1([CH2]CCC)[O]C(=O)C2C(C(=O)[O]1)C1(Cl)C(Cl)=C(Cl)C2(Cl)C1(Cl)Cl (configuration not stated)	> 200 µM	0.182 µM	
CSc1s[s+]c(SC)c1[O-]			inactive

Compound	EC50	IC50	outcome
C1CCc2nnnn2CC1	> 200 µM and 120 µM	> 200 µM and 724 µM	
CC1(c2ccccc2)Oc2ccccc2-n2cccc2C1=O (configuration not stated)	2.4 µM	12.9 µM	
COc1ccc(C(CC(=O)c2ccc3c(c2)OCO3)c2c(O)c3ccccc3oc2=O)cc1OC (configuration not stated)	> 200 µM	75.9 µM	
COC(=O)c1cc(=O)n2c(sc3ccccc32)c1C(=O)c1ccccc1	> 10 µM	> 10 µM	
CCNC(=S)N/N=C(/c1ccc(OC)cc1)P(=O)(OCC)OCC	> 50.1 µM	> 50.1 µM	
Cc1cc(S(=O)(=O)Nc2nnc3cc(C(F)(F)F)cc(C)n23)c(S)cc1Cl	50.1 µM	132 µM	
Oc1ccc(C=NCC2CCCN3CCCCC23)cc1 (configuration not stated)	> 200 µM	33.1 µM	
O=c1nc(SSc2ccn(C3OC(CO)C(O)C3O)c(=O)n2)ccn1C1OC(CO)C(O)C1O (configuration not stated)	> 200 µM	2.63 µM	
Nc1ccc2c(=S)c3ccccc3[nH]c2c1			inactive
O=C(O)c1oc2cccc3c2c1CCC3			inactive
CCCCCCCCCCCC(O)S(=O)(=O)O (configuration not stated)	> 200 µM	102 µM	
COc1cc(Nc2nc(NS(=O)(=O)c3cc(C)c(Cl)cc3S)n[nH]2)cc(OC)c1OC	112 µM	794 µM	
COc1ccc2c(c1)C(O)NC(=O)O2 (configuration not stated)	> 200 µM	49 µM	
COc1cc2ccc(/C(C)=N/OC(C)=O)cc2cc1OC			inactive
COC1=C(C(c2cc(OC)c(OC)c(OC)c2)c2cc3c(cc2OC)OCO3)C(=O)OC1 (configuration not stated)	> 200 µM	10.5 µM	
O=C(CCCC1Cc2ccccc2C1=O)c1ccccc1 (configuration not stated)	> 200 µM	91.2 µM	
COC1(O)c2cccc(Cl)c2C(=O)N1C1(C(N)=O)CCCCC1 (configuration not stated)			inactive
O=c1[nH]c(=S)[nH]c2c1sc(=S)n2-c1ccccc1	> 89.1 µM	> 89.1 µM	
Cn1c2ccccc2c2ccc3c(c21)C(=O)C=CC3=O	> 100 µM	1.35 µM	
COc1cc(C(=O)N/N=C/N(C)C)cc(OC)c1OC	> 200 µM	> 200 µM	
CCOC(=O)c1ccc(NC(=O)SCCC(=O)O)cc1			inactive
COc1ccc(-c2c3c(n(C4OC(COC(C)=O)C(OC(C)=O)C(OC(C)=O)C4OC(C)=O)c(=S)c2C#N)CCC3)cc1 (configuration not stated)	> 200 µM	112 µM	
